Test results: ChEMBL document CHEMBL4507270 (2021); call rule not given here

Legend:
[1] = target: Ribosomal protein S6 kinase alpha-6 (Homo sapiens) (UniProt Q9UK32)
[2] = target: Cyclin-dependent kinase 4 (Homo sapiens) (UniProt P11802)
[3] = target: Serine/threonine-protein kinase BRSK1 (Homo sapiens) (UniProt Q8TDC3)
[4] = target: Activin receptor type-1B (Homo sapiens) (UniProt P36896)
[5] = target: Ribosomal protein S6 kinase alpha-2 (Homo sapiens) (UniProt Q15349)
[6] = target: Serine/threonine-protein kinase TAO1 (Homo sapiens) (UniProt Q7L7X3)
[7] = target: Testis-specific serine/threonine-protein kinase 1 (Homo sapiens) (UniProt Q9BXA7)
[8] = target: RAC-alpha serine/threonine-protein kinase (Homo sapiens) (UniProt P31749)
[9] = target: Casein kinase I isoform epsilon (Homo sapiens) (UniProt P49674)
[10] = target: Serine/threonine-protein kinase MRCK beta (Homo sapiens) (UniProt Q9Y5S2)
[11] = target: LIM domain kinase 1 (Homo sapiens) (UniProt P53667)
[12] = target: Tyrosine-protein kinase ABL1 (Homo sapiens) (UniProt P00519)
[13] = target: Serine/threonine-protein kinase Nek7 (Homo sapiens) (UniProt Q8TDX7)
[14] = test system: Receptor-type tyrosine-protein kinase FLT3 (Homo sapiens), P36888 [D835Y]
[15] = target: Serine/threonine-protein kinase D2 (Homo sapiens) (UniProt Q9BZL6)
[16] = target: Testis-specific serine/threonine-protein kinase 3 (Homo sapiens) (UniProt Q96PN8)
[17] = target: BMP-2-inducible protein kinase (Homo sapiens) (UniProt Q9NSY1)
[18] = target: Ephrin type-A receptor 3 (Homo sapiens) (UniProt P29320)
[19] = target: RAF proto-oncogene serine/threonine-protein kinase (Homo sapiens) (UniProt P04049)
[20] = target: SRSF protein kinase 1 (Homo sapiens) (UniProt Q96SB4)
[21] = target: Misshapen-like kinase 1 (Homo sapiens) (UniProt Q8N4C8)
Misshapen-like kinase 1 (Homo sapiens), sequence (Q8N4C8 whole entry, looked up): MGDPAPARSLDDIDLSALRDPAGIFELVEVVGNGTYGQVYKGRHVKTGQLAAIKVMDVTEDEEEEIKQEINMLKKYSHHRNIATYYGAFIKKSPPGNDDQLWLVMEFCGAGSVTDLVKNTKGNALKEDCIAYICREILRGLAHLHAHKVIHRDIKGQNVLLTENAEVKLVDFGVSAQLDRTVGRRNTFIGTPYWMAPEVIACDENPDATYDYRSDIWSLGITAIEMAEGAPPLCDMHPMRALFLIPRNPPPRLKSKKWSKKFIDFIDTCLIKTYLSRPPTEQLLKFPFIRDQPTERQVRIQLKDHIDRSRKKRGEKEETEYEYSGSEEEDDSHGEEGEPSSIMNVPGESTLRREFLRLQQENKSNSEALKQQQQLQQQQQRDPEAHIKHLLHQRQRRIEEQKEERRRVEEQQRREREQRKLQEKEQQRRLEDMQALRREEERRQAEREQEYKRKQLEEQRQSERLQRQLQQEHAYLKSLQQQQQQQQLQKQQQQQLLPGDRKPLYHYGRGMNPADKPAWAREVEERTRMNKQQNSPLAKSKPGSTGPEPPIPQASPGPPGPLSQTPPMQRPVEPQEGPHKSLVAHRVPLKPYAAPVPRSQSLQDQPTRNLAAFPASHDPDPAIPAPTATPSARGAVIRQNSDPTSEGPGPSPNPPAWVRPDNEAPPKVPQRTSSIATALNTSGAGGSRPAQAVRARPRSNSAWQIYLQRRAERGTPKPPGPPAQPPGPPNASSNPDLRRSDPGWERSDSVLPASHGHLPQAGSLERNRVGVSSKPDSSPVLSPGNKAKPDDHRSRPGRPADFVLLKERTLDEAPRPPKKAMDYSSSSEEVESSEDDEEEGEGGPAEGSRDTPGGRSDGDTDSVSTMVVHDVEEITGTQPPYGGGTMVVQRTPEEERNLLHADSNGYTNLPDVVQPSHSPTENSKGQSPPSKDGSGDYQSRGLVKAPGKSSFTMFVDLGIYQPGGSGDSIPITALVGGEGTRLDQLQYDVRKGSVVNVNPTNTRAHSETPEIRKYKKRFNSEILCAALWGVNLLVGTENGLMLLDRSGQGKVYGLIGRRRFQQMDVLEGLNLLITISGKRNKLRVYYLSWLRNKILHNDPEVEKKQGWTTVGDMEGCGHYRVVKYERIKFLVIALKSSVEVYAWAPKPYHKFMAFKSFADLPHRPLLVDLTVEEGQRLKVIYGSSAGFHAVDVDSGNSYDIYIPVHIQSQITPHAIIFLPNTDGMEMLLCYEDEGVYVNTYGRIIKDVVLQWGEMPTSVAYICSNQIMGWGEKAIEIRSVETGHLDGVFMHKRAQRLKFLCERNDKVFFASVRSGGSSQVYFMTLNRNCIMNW

[22] = target: Membrane-associated tyrosine- and threonine-specific cdc2-inhibitory kinase (Homo sapiens) (UniProt Q99640)
Membrane-associated tyrosine- and threonine-specific cdc2-inhibitory kinase (Homo sapiens), sequence (Q99640 whole entry): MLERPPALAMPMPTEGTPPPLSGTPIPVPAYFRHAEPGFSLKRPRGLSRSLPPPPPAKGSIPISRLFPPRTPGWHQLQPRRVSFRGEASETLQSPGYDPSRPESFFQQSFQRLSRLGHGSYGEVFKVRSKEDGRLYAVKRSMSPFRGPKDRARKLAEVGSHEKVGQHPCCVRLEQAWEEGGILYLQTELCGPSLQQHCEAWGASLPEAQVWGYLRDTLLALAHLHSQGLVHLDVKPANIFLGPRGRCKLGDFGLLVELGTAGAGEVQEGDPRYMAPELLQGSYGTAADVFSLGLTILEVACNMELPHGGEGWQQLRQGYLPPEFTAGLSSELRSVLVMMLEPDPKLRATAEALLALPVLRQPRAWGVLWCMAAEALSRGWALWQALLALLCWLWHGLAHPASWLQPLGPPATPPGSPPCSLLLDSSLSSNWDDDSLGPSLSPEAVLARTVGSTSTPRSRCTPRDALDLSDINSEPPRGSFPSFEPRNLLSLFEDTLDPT

[23] = target: Rhodopsin kinase GRK7 (Homo sapiens) (UniProt Q8WTQ7)
[24] = target: Serine/threonine-protein kinase Sgk2 (Homo sapiens) (UniProt Q9HBY8)
[25] = target: Serine/threonine-protein kinase B-raf (Homo sapiens) (UniProt P15056)
[26] = target: D(1A) dopamine receptor (Homo sapiens) (UniProt P21728); details: Compound concentration 10.0 uM
[27] = target: Serine/threonine-protein kinase OSR1 (Homo sapiens) (UniProt O95747)
[28] = test system: Epidermal growth factor receptor (Homo sapiens), P00533 [UNDEFINED MUTATION]
[29] = target: Receptor-interacting serine/threonine-protein kinase 1 (Homo sapiens) (UniProt Q13546)
[30] = NanoBRET assay (SGC Frankfurt) with LYN; details: Homo sapiens
[31] = target: Tyrosine-protein kinase CSK (Homo sapiens) (UniProt P41240)
[32] = target: Citron Rho-interacting kinase (Homo sapiens) (UniProt O14578)
[33] = target: Homeodomain-interacting protein kinase 4 (Homo sapiens) (UniProt Q8NE63)
[34] = target: Serine/threonine-protein kinase BRSK2 (Homo sapiens) (UniProt Q8IWQ3)
[35] = target: Phosphorylase b kinase gamma catalytic chain, skeletal muscle/heart isoform (Homo sapiens) (UniProt Q16816)
[36] = target: 5-hydroxytryptamine receptor 5A (Homo sapiens) (UniProt P47898); details: Compound concentration 10.0 uM
5-hydroxytryptamine receptor 5A (Homo sapiens), sequence (P47898 whole entry): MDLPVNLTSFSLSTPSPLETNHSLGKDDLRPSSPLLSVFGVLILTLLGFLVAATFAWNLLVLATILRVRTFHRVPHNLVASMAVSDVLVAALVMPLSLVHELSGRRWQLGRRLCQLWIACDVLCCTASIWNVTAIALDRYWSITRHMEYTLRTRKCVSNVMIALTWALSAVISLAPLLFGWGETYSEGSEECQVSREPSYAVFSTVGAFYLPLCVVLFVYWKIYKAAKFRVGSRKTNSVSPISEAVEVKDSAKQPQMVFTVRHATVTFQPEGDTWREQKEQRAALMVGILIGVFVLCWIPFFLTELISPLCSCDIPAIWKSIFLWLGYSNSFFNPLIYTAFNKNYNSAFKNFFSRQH

[37] = target: D(4) dopamine receptor (Homo sapiens) (UniProt P21917); details: Compound concentration 10.0 uM
[38] = target: Rhodopsin kinase GRK1 (Homo sapiens) (UniProt Q15835)
[39] = target: NT-3 growth factor receptor (Homo sapiens) (UniProt Q16288)
[40] = target: Death-associated protein kinase 2 (Homo sapiens) (UniProt Q9UIK4)
[41] = target: Mitogen-activated protein kinase kinase kinase kinase 4 (Homo sapiens) (UniProt O95819)
[42] = target: Dual specificity testis-specific protein kinase 1 (Homo sapiens) (UniProt Q15569)
Dual specificity testis-specific protein kinase 1 (Homo sapiens), sequence (Q15569 whole entry, looked up): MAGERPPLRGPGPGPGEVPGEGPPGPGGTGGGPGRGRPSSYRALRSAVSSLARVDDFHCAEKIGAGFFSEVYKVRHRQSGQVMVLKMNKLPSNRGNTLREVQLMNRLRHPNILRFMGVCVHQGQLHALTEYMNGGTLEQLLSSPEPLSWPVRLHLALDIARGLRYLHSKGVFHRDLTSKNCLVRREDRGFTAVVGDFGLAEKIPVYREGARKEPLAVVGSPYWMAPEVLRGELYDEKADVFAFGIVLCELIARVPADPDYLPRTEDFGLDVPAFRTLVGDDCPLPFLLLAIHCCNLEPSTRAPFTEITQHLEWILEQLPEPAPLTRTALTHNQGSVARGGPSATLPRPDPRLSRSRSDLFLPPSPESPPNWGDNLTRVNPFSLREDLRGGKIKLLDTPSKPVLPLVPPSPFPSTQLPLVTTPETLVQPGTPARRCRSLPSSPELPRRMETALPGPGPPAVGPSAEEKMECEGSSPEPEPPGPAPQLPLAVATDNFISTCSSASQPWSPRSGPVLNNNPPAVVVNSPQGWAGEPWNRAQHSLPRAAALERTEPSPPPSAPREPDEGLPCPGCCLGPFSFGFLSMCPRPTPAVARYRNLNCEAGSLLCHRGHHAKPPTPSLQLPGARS

[43] = target: Serine/threonine-protein kinase 35 (Homo sapiens) (UniProt Q8TDR2)
Serine/threonine-protein kinase 35 (Homo sapiens), sequence (Q8TDR2 whole entry): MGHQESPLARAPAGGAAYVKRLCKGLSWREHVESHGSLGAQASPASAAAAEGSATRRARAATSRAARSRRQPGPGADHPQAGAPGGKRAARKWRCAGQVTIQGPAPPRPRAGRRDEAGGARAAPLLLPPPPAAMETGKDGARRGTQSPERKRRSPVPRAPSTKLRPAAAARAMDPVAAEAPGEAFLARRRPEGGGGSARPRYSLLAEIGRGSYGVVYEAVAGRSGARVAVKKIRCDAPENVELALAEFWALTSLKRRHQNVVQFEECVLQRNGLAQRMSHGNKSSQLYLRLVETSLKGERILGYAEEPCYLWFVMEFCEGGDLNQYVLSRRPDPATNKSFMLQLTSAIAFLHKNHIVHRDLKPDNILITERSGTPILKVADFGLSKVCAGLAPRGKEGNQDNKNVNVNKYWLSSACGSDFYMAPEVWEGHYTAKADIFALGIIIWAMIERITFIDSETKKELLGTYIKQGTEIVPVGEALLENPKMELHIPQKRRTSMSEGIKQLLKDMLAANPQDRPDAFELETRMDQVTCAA

[44] = target: Serine/threonine-protein kinase 32B (Homo sapiens) (UniProt Q9NY57)
[45] = test system: Tyrosine-protein kinase ABL1 (Homo sapiens), P00519 [T315I]
[46] = target: Tyrosine-protein kinase Tec (Homo sapiens) (UniProt P42680)
[47] = Compound concentration 1000.0 nM
[48] = Compound concentration 100.0 nM

Activin receptor type-1B (Homo sapiens), sequence (P36896 whole entry): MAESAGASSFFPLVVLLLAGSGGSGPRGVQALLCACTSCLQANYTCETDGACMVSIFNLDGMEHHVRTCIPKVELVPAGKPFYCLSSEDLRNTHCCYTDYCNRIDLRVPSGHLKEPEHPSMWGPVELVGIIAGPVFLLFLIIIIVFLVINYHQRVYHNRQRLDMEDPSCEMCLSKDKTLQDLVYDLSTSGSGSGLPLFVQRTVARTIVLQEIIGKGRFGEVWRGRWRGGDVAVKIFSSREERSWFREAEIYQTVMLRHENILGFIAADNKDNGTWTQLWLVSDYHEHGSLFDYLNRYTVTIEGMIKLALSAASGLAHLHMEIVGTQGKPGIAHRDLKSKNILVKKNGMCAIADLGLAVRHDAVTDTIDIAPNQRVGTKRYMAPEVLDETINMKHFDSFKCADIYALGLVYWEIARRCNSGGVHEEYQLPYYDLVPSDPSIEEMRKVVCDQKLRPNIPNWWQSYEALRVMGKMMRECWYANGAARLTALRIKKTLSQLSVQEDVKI
Serine/threonine-protein kinase BRSK1 (Homo sapiens), sequence (Q8TDC3 whole entry): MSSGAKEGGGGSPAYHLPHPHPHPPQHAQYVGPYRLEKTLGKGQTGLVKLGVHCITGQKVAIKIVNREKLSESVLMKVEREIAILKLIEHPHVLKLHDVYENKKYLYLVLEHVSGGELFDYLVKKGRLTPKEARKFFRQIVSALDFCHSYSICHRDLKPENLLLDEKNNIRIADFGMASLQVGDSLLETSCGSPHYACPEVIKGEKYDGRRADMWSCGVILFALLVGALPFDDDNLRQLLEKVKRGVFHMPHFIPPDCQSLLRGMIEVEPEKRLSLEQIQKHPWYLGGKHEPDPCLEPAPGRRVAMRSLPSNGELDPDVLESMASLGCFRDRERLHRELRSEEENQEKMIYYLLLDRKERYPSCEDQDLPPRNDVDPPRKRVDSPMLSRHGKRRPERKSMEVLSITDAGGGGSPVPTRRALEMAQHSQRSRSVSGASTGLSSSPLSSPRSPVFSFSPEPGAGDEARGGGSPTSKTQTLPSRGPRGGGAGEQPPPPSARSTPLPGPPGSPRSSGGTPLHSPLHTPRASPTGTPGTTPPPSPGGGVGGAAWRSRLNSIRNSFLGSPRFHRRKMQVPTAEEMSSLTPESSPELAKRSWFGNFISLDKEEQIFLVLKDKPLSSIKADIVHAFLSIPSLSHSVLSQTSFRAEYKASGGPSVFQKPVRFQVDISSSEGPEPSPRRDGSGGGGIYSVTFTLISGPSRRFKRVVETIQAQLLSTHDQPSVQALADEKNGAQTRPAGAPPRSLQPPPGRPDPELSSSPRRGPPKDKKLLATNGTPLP
Cyclin-dependent kinase 4 (Homo sapiens), sequence (P11802 whole entry): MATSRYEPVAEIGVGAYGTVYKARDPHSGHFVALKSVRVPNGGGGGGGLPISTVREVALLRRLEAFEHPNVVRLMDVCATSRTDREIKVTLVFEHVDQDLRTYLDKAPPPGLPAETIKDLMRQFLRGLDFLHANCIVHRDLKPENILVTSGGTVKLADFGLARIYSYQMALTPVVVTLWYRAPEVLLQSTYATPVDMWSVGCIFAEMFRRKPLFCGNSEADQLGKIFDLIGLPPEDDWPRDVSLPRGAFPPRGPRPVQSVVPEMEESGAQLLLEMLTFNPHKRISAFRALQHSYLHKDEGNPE

`Cc1cc(NC(=O)c2cccc(S(F)(F)(F)(F)F)c2)cc(-n2ccn3nc(-c4cccnc4)cc23)c1` [BAY-309] showed a residual activity [1, 47] of 100%, a residual activity [2, 47] of 79.3% and a residual activity [3, 47] of 100%. The residual activity [4, 47] was 100%, the residual activity [5, 47] was 84% and the residual activity [6, 47] was 100%. The residual activity [7, 47] was 100%, the residual activity [8, 47] was 100% and the residual activity [9, 47] was 75.7%. For the same molecule, the residual activity [10, 47] was 100%, the residual activity [11, 47] was 100% and the residual activity [12, 47] was 73.6%. It also gave a residual activity [13, 47] of 100%, a residual activity [14, 47] of 100% and a residual activity [15, 47] of 100%. It also gave a residual activity [16, 47] of 100%, a residual activity [17, 47] of 65.9% and a residual activity [18, 47] of 100%. For the same molecule, the residual activity [19, 47] was 29.4%, the residual activity [20, 47] was 100% and the residual activity [21, 47] was 82%. The residual activity [22, 47] was 100%, the residual activity [23, 47] was 100% and the residual activity [24, 47] was 100%. For the same molecule, the residual activity [25, 47] was 43.5%, the inhibition [26] was 20.6% and the residual activity [27, 47] was 100%. For the same molecule, the residual activity [28, 47] was 95.1%, the residual activity [29, 47] was 80.7% and the EC50 [30] was > 50 µM (not active). The IC50 [30] was 7 µM (not active), the residual activity [31, 47] was 100% and the residual activity [32, 47] was 60.7%. For the same molecule, the residual activity [33, 47] was 100%, the residual activity [34, 47] was 100% and the residual activity [35, 47] was 100%. The inhibition [36] was -4.71%, the inhibition [37] was 12.4% and the residual activity [38, 47] was 50.4%. It also gave a residual activity [39, 47] of 27.2%, a residual activity [40, 47] of 100% and a residual activity [41, 47] of 100%. For the same molecule, the residual activity [42, 47] was 91.7%, the residual activity [43, 47] was 100% and the residual activity [44, 47] was 100%. For the same molecule, the residual activity [45, 47] was 60.8% and the residual activity [46, 47] was 100%.
In the case of `Cc1cc(C)c(-n2ccn3nc(-c4cccnc4)cc23)cc1NC(=O)c1cc(C#N)cc(S(F)(F)(F)(F)F)c1` [BAY-826], the residual activity [1, 48] is reported as 74.9%, the residual activity [2, 48] is reported as 82.4% and the residual activity [3, 48] is reported as 84%. The residual activity [4, 48] was 100%, the residual activity [5, 48] was 90.9% and the residual activity [6, 48] was 45.2%. It also gave a residual activity [7, 48] of 100%, a residual activity [8, 48] of 90.9% and a residual activity [9, 48] of 98.7%. For the same molecule, the residual activity [10, 48] was 95.5%, the residual activity [11, 48] was 83.6% and the residual activity [12, 48] was 74.6%. For the same molecule, the residual activity [13, 48] was 75.5%, the residual activity [14, 48] was 91.4% and the residual activity [15, 48] was 100%. The residual activity [16, 48] was 76.9%, the residual activity [17, 48] was 94.7% and the residual activity [18, 48] was 89.8%. The residual activity [19, 48] was 83.8%, the residual activity [20, 48] was 67.4% and the residual activity [21, 48] was 88.9%. The residual activity [22, 48] was 100%, the residual activity [23, 48] was 65.6% and the residual activity [24, 48] was 100%. The residual activity [25, 48] was 89.4%, the inhibition [26] was 4.82% and the residual activity [27, 48] was 87%. The residual activity [28, 48] was 85.5%, the residual activity [29, 48] was 91.5% and the EC50 [30] was 7.4 µM (not active). For the same molecule, the IC50 [30] was 8.2 µM (not active), the residual activity [31, 48] was 77.9% and the residual activity [32, 48] was 69.9%. The residual activity [33, 48] was 95.6%, the residual activity [34, 48] was 97.5% and the residual activity [35, 48] was 80.1%. For the same molecule, the inhibition [36] was 9.57%, the inhibition [37] was 16.4% and the residual activity [38, 48] was 71.2%. It also gave a residual activity [39, 48] of 60.4%, a residual activity [40, 48] of 75.8% and a residual activity [41, 48] of 95.1%. The residual activity [42, 48] was 85.1%, the residual activity [43, 48] was 92% and the residual activity [44, 48] was 94.3%. The residual activity [45, 48] was 83.8% and the residual activity [46, 48] was 88.4%.
